Test results as given in patent US10315996B2, “ROR gamma (RORγ) modulators” (LEAD PHARMA HOLDING B.V., priority 2015, dated 2019).

Target: T1, RORγ (Homo sapiens, UniProt P51449)
T1 construct: expressed in transfected cells; host or cells: 293FT cells (Invitrogen), expression vector pFN26A (Promega)
T1 sequence (P51449 269-508 limits assumed): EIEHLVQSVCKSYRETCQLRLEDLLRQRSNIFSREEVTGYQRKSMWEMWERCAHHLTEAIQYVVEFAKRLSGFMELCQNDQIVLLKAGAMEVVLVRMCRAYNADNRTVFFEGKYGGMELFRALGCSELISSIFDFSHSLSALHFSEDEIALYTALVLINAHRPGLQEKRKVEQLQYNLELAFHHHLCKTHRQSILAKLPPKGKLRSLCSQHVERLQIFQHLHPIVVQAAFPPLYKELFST
Test: RORγ GAL4 reporter gene assay
Assay type: cell-based
Details: inhibition of RORγ activity, GAL4-RORγ-LBD luciferase reporter in 293FT cells, overnight incubation; read-out: mean pIC50 (converted)
Procedure, shortened: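 293FT cells were transiently co-transfected with GAL4-DBD–RORγ-LBD (or GAL4-VP16 control) and a 9×UAS luc2P reporter, then plated at 60,000 cells/well. Compound was added at final 0.2% DMSO for 16-24 h at 37 °C, and inhibition was measured by firefly luciferase luminescence.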

| SMILES | IC50 [nM] |
| --- | --- |
| CCN(C(=O)c1ccc(NC(=O)Cc2ccc(S(=O)(=O)CC3CC3)cc2)cc1)c1cccc(C)c1 [Example 31, 4-[2-(4-cyclopropylmethanesulfonylphenyl)acetamido]-N-ethyl-N-(3-methylphenyl)benzamide] | ≤ 10 |
| CN(Cc1ccco1)C(=O)c1ccc(NC(=O)Cc2ccc(S(=O)(=O)CC3CC3)cc2)cc1 [Example 59, 4-[2-(4-cyclopropylmethanesulfonylphenyl)acetamido]-N-(furan-2-ylmethyl)-N-methylbenzamide] | ≤ 100 |
| O=C(Cc1ccc(S(=O)(=O)CC2CC2)cc1)Nc1ccc(C(=O)N2CCCCC2c2ccccc2)cc1 (centres unmarked) [Example 49, 2-(4-cyclopropylmethanesulfonylphenyl)-N-[4-(2-phenylpiperidine-1-carbonyl)phenyl]acetamide] | ≤ 10 |
| N#CC(NC(=O)c1ccc(NC(=O)Cc2ccc(S(=O)(=O)CC3CC3)cc2)cc1)c1cccs1 (centres unmarked) [Example 72, N-[cyano(thiophen-2-yl)methyl]-4-[2-(4-cyclopropylmethanesulfonylphenyl)acetamido]benzamide] | ≤ 1000 |
| O=C(Cc1ccc(S(=O)(=O)CC2CC2)cc1)Nc1ccc(C(=O)N2CCCCc3ccccc32)cc1 [Example 63, 2-(4-cyclopropylmethanesulfonylphenyl)-N-[4-(2,3,4,5-tetrahydro-1H-1-benzazepine-1-carbonyl)phenyl]acetamide] | ≤ 10 |
| CCN(C(=O)c1ccc(NC(=O)Cc2ccc(S(=O)(=O)NC3CC3)cc2)cc1)c1ccccc1 [Example 43, 4-{2-[4-(cyclopropylsulfamoyl)phenyl]acetamido}-N-ethyl-N-phenylbenzamide] | ≤ 10 |
| CCN(C(=O)c1ccc(NC(=O)Cc2ccc(S(=O)(=O)CC3CC3)cc2)cc1)c1nc(C)c(C)s1 [Example 64, 4-[2-(4-cyclopropylmethanesulfonylphenyl)acetamido]-N-(4-methyl-5-methyl-1,3-thiazol-2-yl)-N-ethylbenzamide] | ≤ 10 |
| CCCN(Cc1ccccc1)C(=O)c1ccc(NC(=O)Cc2ccc(S(=O)(=O)NC3CC3)cc2)cc1 [Example 23, N-benzyl-4-{2-[4-(cyclopropylsulfamoyl)phenyl]acetamido}-N-propylbenzamide] | ≤ 1000 |
| CN(C(=O)c1ccc(NC(=O)Cc2ccc(S(=O)(=O)CC3CC3)cc2)cc1)C1CCCCC1 [Example 34, N-cyclohexyl-4-[2-(4-cyclopropylmethanesulfonylphenyl)acetamido]-N-methylbenzamide] | ≤ 1000 |
| CCN(Cc1ccccc1)C(=O)c1ccc(NC(=O)Cc2ccc(S(=O)(=O)CC3CC3)cc2)cc1 [Example 42, N-benzyl-4-[2-(4-cyclopropylmethanesulfonylphenyl)acetamido]-N-ethylbenzamide] | ≤ 100 |
| CCCN(C(=O)c1ccc(NC(=O)Cc2ccc(S(=O)(=O)NC3CC3)cc2)cc1)c1ccccc1 [Example 22, 4-{2-[4-(cyclopropylsulfamoyl)phenyl]acetamido}-N-phenyl-N-propylbenzamide] | ≤ 100 |
| CCCN(Cc1ccccc1)C(=O)c1ccc(NC(=O)Cc2ccc(S(=O)(=O)CC3CC3)cc2)cc1 [Example 21, N-benzyl-4-[2-(4-cyclopropylmethanesulfonylphenyl)acetamido]-N-propylbenzamide] | ≤ 10 |
| CCCN(C(=O)c1ccc(NC(=O)Cc2ccc(S(=O)(=O)NC3CC3)cc2)cc1)c1cc(C)nn1C [Example 92, 4-{2-[4-(cyclopropylsuIfamoyl)phenyl]acetamido}-N-(1,3-dimethyl-1H-pyrazol-5-yl)-N-propylbenzamide] | ≤ 10 |
| O=C(Cc1ccc(S(=O)(=O)CC2CC2)cc1)Nc1ccc(C(=O)N(CC(F)(F)F)c2ccccc2)cc1 [Example 104, 4-[2-(4-cyclopropylmethanesulfonylphenyl)acetamido]-N-phenyl-N-(2,2,2-trifluoroethyl)benzamide] | ≤ 10 |

Next, values leading:

| IC50 [nM] | SMILES |
| --- | --- |
| ≤ 10 | CCN(C(=O)c1ccc(NC(=O)Cc2ccc(S(=O)(=O)CC3CC3)cc2)cc1C)c1ccccc1Cl [Example 166, N-(2-chlorophenyl)-4-[2-(4-cyclopropylmethanesulfonylphenyl)acetamido]-N-ethyl-2-methylbenzamide] |
| ≤ 100 | O=C(Cc1ccc(S(=O)(=O)CC2CC2)cc1)Nc1ccc(C(=O)N(c2cccnc2)C2CC2)cc1 [Example 143, N-cyclopropyl-4-[2-(4-cyclopropylmethanesulfonylphenyl)acetamido]-N-(pyridin-3-yl)benzamide] |
| ≤ 100 | CCN(C(=O)c1ccc(NC(=O)Cc2ccc(S(=O)(=O)CC3CC3)nc2)cc1F)c1ccccc1 [Example 156, 4-[2-(6-cyclopropylmethanesulfonylpyridin-3-yl)acetamido]-N-ethyl-2-fluoro-N-phenylbenzamide] |
| ≤ 100 | Cc1ccc(N(C(=O)c2ccc(NC(=O)Cc3ccc(S(=O)(=O)CC4CC4)nc3)cc2)C(C)(C)CO)cc1 [Example 161, 4-[2-(6-cyclopropylmethanesulfonylpyridin-3-yl)acetamido]-N-(1-hydroxy-2-methylpropan-2-yl)-N-(4-methylphenyl)benzamide] |
| ≤ 100 | CC(C)(CO)N(C(=O)c1ccc(NC(=O)Cc2ccc(S(=O)(=O)CC3CC3)cc2)cc1)c1ccccc1 [Example 138, 4-[2-(4-cyclopropylmethanesulfonylphenyl)acetamido]-N-(1-hydroxy-2-methylpropan-2-yl)-N-phenylbenzamide] |
| ≤ 10 | O=C(Cc1ccc(S(=O)(=O)CC2CC2)nc1)Nc1ccc(C(=O)N(CC(F)(F)F)c2ccccc2)cc1 [Example 155, 4-[2-(6-cyclopropylmethanesulfonylpyridin-3-yl)acetamido]-N-phenyl-N-(2,2,2-trifluoroethyl)benzamide] |
| ≤ 10 | Cc1ccccc1N(C)C(=O)c1ccc(NC(=O)Cc2ccc(S(=O)(=O)CC3CC3)cc2)cc1Cl [Example 117, 2-chloro-4-[2-(4-cyclopropylmethanesulfonylphenyl)acetamido]-N-methyl-N-(2-methylphenyl)benzamide] |
| ≤ 10 | CC(C)(C)N(C(=O)c1ccc(NC(=O)Cc2ccc(S(=O)(=O)CC3CC3)nc2)c(F)c1)c1ccccc1 [Example 159, N-tert-butyl-4-[2-(6-cyclopropylmethanesulfonylpyridin-3-yl)acetamido]-3-fluoro-N-phenylbenzamide] |
| ≤ 1000 | O=C(Cc1ccc(S(=O)(=O)CC2CC2)cc1)Nc1ccc(C(=O)Nc2c(Cl)cccc2Cl)cc1 [Example 147, 4-[2-(4-cyclopropylmethanesulfonylphenyl)acetamido]-N-(2,6-dichlorophenyl)benzamide] |
| ≤ 100 | Cc1ccc(N(C(=O)c2ccc(NC(=O)Cc3ccc(S(=O)(=O)NC4CC4)cc3)cc2)C(C)(C)CO)cc1 [Example 154, 4-{2-[4-(cyclopropylsulfamoyl)phenyl]acetamido}-N-(1-hydroxy-2-methylpropan-2-yl)-N-(4-methylphenyl)benzamide] |
| ≤ 1000 | CCN(C(=O)c1ccc(NC(=O)Cc2ccc(S(=O)(=O)NC3CC3)cc2)cc1F)c1ccccc1 [Example 111, 4-{2-[4-(cyclopropylsulfamoyl)phenyl]acetamido}-N-ethyl-2-fluoro-N-phenylbenzamide] |
| ≤ 10 | CC(C)(C)N(C(=O)c1ccc(NC(=O)Cc2ccc(S(=O)(=O)CC3CC3)nc2)cc1)c1ccccc1 [Example 158, N-tert-butyl-4-[2-(6-cyclopropylmethanesulfonylpyridin-3-yl)acetamido]-N-phenylbenzamide] |
